Reference: patent publication US20260355192A1, “PROPHYLACTIC OR THERAPEUTIC AGENT FOR PERIOSTIN-MEDIATED DISEASE AND PRURITUS ASSOCIATED THEREWITH” (SAGA UNIVERSITY, priority 2022, published 2026)

Tests used:
[1] = test system: scratching behaviors in FADS mice; experiment: Scratching behaviors in FADS mice upon repeated systemic administration of CP4715; assay type: in vivo, mouse (FADS, Nestin-cre/Ikk2ff); settings: at 1 week and 2 weeks after administration; 107.4 μmol/kg twice a day under the dorsal skin; Mann-Whitney's U-test vs diluent control; FIG. 1
From the text: (§1) Nestin-cre transgenic mice were crossed with IKK2^ff mice to prepare Nestin-cre/Ikk2^ff mice specifically lacking IKK2 in their facial skin fibroblasts (Nunomura S, et al. J Invest Dermatol. 139:1274-1283, 2019). These mice inevitably develop atopic dermatitis-like rash limited to the face and intense itchy symptoms, and were therefore designated as Facial Atopic Dermatitis with Scratching (FADS) mice. […] For evaluation of the prophylactic or therapeutic agent of the present invention, FADS mice at 3 to 4 weeks of age or older were used because of showing spontaneous scratching behaviors. It should be noted that in this Example section, the above compound of formula (I) (more particularly “CP4715”) was used as the prophylactic or therapeutic agent of the present invention.
FADS mice were acclimated for 20 minutes to the environment of a recording cage, and then recorded with a video camera. The recorded videos were replayed, and scratching behaviors were counted assuming that hind paw scratching to the face and the subsequent movement of toe licking or paw lowering to the ground were regarded as one cycle of scratching behavior. […]
At 1 week and 2 weeks after drug administration, the mice were recorded for 60 minutes and analyzed to calculate the number of scratchings per minute for evaluation. […]

[2] = test system: scratching behaviors in FADS mice; experiment: Scratching behaviors in FADS mice upon repeated percutaneous administration of CP4715; assay type: in vivo, mouse (FADS, Nestin-cre/Ikk2ff); settings: 30 μL of 26.85 mM solution externally applied once a day for 28 days to facial rash lesions; FIG. 7
From the text: as §1
(§2) FADS mice were acclimated for 20 minutes to the environment of a recording cage, and then recorded with a video camera. The recorded videos were replayed, and scratching behaviors were counted assuming that hind paw scratching to the face and the subsequent movement of toe licking or paw lowering to the ground were regarded as one cycle of scratching behavior.
CP4715 was dissolved in a diluent (5% DMSO/15% N-methyl-2-pyrrolidone/80% ethanol) to prepare a 26.85 mM solution. […] Before administration and on Days 3, 7, 14, 21 and 28 of administration, the number of scratchings during 60 minutes was counted for evaluation.

[3] = test system: neurons in the posterior horn surface of the spinal cord; experiment: In vivo extracellular recording from the posterior horn surface of the spinal cord in FADS mice (spontaneous firing); design: species or system mouse (FADS); settings: 53.7 μmol/kg i.p.; FIG. 3
Protocol: In Vivo Extracellular Recording from the Posterior Horn Surface of the Spinal Cord in FADS Mice
FADS mice were administered intraperitoneally with 1.5 g/kg of urethane and anesthetized, followed by dorsal lumbar laminectomy. The first to sixth lumbar vertebrae were exposed, and each mouse was set on a stereotaxic apparatus. Under a microscope, the dural, arachnoidal and pial membranes were removed, and the spinal cord surface was warmed at 36±1 °C, followed by perfusion at 15 to 20 mL/min with an artificial cerebrospinal fluid (composition: NaCl (117 mM), KCl (3.6 mM), CaCl2) (2.5 mM), MgCl2 (1.2 mM), NaH2PO4 (1.2 mM), glucose (11 mM), NaHCO3 (25 mM)) saturated with 95% 02 to 5% CO2. Into the exposed spinal cord, a tungsten electrode (tip diameter: […], tip impedance: 9 to 12 MΩ) was inserted (latero-medial), and records were obtained from neurons in the posterior horn surface of the spinal cord.
CP4715 was dissolved at 89.5 mM in a diluent (physiological saline containing 50% DMSO and 89.5 mM hydrochloric acid), from which an amount corresponding to 53.7 μmol/kg per mouse was then taken and diluted with 0.3 mL of physiological saline, and then administered intraperitoneally (i.p.). 0.3 mL of physiological saline containing an equal amount of the diluent as calculated based on the body weight was administered as a control. When recorded from the spinal cord posterior horn of the FADS mice, neurons with spontaneous firing could be recorded. When the above control solution was first administered intraperitoneally, there was little change in the frequency of spontaneous firing during 30 minutes after administration.

[4] = test system: glycoprotein (GP) IIb/IIIa receptor; settings: cited from earlier work
[5] = test system: scratching behaviors in FADS mice; experiment: Scratching behaviors in FADS mice upon single systemic administration of αvβ3 integrin inhibitors; assay type: in vivo, mouse (FADS, Nestin-cre/Ikk2ff)
From the text: as §1, §2
Prior to the administration of the above αvβ3 integrin inhibitors, FADS mice were recorded for 60 minutes with a video camera and then allowed to rest for 15 minutes. The compounds except for GLPG-0187 were each dissolved at 89.5 mM in a diluent (physiological saline containing 50% DMSO and 89.5 mM HCL), from which an amount corresponding to 53.7 μmol/kg per mouse was then taken and diluted with 0.3 mL of PBS, and then administered intraperitoneally. […] Mice administered with 0.3 mL of PBS containing an equal amount of the diluent as calculated based on the body weight were used as a control group.
The mice were recorded for 60 minutes with a video camera immediately after administration of the above αvβ3 integrin inhibitors. The number of scratchings before administration was used as a baseline, and % change from the baseline after administration was calculated for each compound. For statistical analysis, paired t-test was used. A P-value of less than 0.05 was considered to be statistically significant. The effect of an inhibitor whose mean change from the baseline was −65% or more at a P-value of less than 0.01 was expressed as “++”; the effect of an inhibitor whose mean change from the baseline was −60% or less at a P-value of less than 0.05 was expressed as “+”; and the effect of an inhibitor whose mean change from the baseline was −60% or less at a P-value of 0.05 or higher was expressed as “−.”

With `COc1cc(C(=O)NC[C@H](NS(=O)(=O)c2ccccc2)C(=O)O)ccc1N1CCC(NC2=NCCCN2)CC1` [CP4715, (S)-3-(3-methoxy-4-(4-((1,4,5,6-tetrahydropyrimidin-2-yl)amino)piperidin-1-yl)benzamido)-2-(phenylsulfonamido)propanoic acid] as the compound, how does the “scratching behaviors (number of scratchings per minute)” value [1] read?
Its value is “significantly suppressed (P<0.05)”.

What about the “time-dependent enhancement of scratching behaviors” value [2] of the same compound?
Its value is “suppressed”.

What about the “time after administration at which firing returned to the initial frequency” value [3] of the same compound?
The value was 60 min.

And the “time after administration at which the frequency of firing started to decrease” value [3]?
Its value is 20 min.

And the “time after administration at which the frequency of firing was most strongly suppressed” value [3]?
Its value is 40 min.

And the “antagonistic effect on GP IIb/IIIa receptor” value [4]?
The value was “antagonistic effect”.

And the “% Change from baseline in the number of scratchings (mean ± standard error)” value ([5]; 53.7 μmol/kg i.p., single, 60 minutes after administration vs before administration)?
The value was −68.0 ± 14.0%.

And the “grade of effect on % change from the baseline in the number of scratchings” value ([5]; single i.p., 53.7 μmol/kg (GLPG-0187 5.37 μmol/kg), paired t-test)?
Its value is “++ (mean change from the baseline was −65% or more at a P-value of less than 0.01)”.
